For orientation: inhibition means the change of the read-out against control, counted positive when it falls. As a reminder, the % Inhibition is the percentage by which the read-out fell short of the control. High values mean strong suppression, low ones little suppression.

In one assay the test system is TNF-α release induced by LPS in human peripheral blood mononuclear cells. In words: Test 2: Inhibition of TNF-α release induced by LPS in human peripheral blood mononuclear cells. The class given is cell-based. The following applies: Homo sapiens, PBMC, test product at 0.1 μM, LPS 400 ng/mL, 19 h, TNF-α in supernatant by ELISA. As for the experimental part: Test 2: Inhibition of TNF-α Release Induced by LPS in Human Peripheral Blood Mononuclear Cells
To obtain the mononuclear cells: heparinized venous blood, obtained from healthy volunteers, is diluted with an equal volume of saline phosphate buffer without calcium or magnesium. Aliquots of 30 mL of the mixture are transferred to 50 mL centrifuge tubes containing 15 mL of Ficoll-Hypaque (1.077 g/mL). The tubes are centrifuged at 1200×g for 20 min at room temperature without braking. Approximately two-thirds of the band of platelets lying above the mononuclear cells is removed with a pipette. The mononuclear cells are carefully transferred to a 50 mL tube, washed twice with saline phosphate buffer, centrifuged at 300×g for 10 min at room temperature and resuspended in RPMI supplemented with 1% inactivated fetal bovine serum at a cell density of 2×10^6 cells/mL.
Inhibition of TNF-α release: 100 μL of mononuclear cells (2×10^6 cells/mL) are incubated on 96-well plates with 50 μL of the test product (final concentration, 0.001-10 μM) and 50 μL LPS (E. coli 055B5, Sigma) at a final concentration of 400 ng/mL for 19 h at 37° C. in an atmosphere with CO2 at 5%. The amount of TNF-α released in the supernatant is quantified using a commercial ELISA kit (Biosource International).
Background: ELISA stands for enzyme-linked immunosorbent assay.
As to `Fc1ccc(-c2nc3[nH]ncc3c(-c3ccc(F)cc3)c2-c2ccncc2)cc1` [Example 1, 4,6-Bis(4-fluorophenyl)-5-(4-pyridyl)-1H-pyrazolo[3,4-b]pyridine], the inhibition at 0.1 µM was found to be 57.5%.
Regarding `Cc1n[nH]c2nc(-c3ccc(F)cc3)c(-c3ccncc3)c(-c3ccc(F)cc3)c12` [Example 4, 4,6-Bis(4-fluorophenyl)-3-methyl-5-(4-pyridyl)-1H-pyrazolo[3,4-b]pyridine], at 0.1 µM the inhibition was 68.4%.
The compound `CCn1cc2c(-c3ccc(F)cc3)c(-c3ccncc3)c(-c3ccc(F)cc3)nc2n1` [Example 6, 2-Ethyl-4,6-bis(4-fluorophenyl)-5-(4-pyridyl)pyrazolo[3,4-b]pyridine] returned an inhibition at 0.1 µM of 81.4%.
On the same count and under the same terms, to `Cn1cc2c(-c3ccc(F)cc3)c(-c3ccncc3)c(-c3ccc(F)cc3)nc2n1` [Example 8, 4,6-Bis(4-fluorophenyl)-2-methyl-5-(4-pyridyl)pyrazolo[3,4-b]pyridine] belongs 66.3%; to `Cn1cc2c(-c3ccccc3)c(-c3ccncc3)c(-c3ccccc3)nc2n1` [Example 22, 2-Methyl-4,6-diphenyl-5-(4-pyridyl)pyrazolo[3,4-b]pyridine], 56.5%; to `Fc1ccc(-c2nc3nn(CCN4CCOCC4)cc3c(-c3ccc(F)cc3)c2-c2ccncc2)cc1` [Example 30, 4,6-Bis(4-fluorophenyl)-2-[2-(morpholin-4-yl)ethyl]-5-(4-pyridyl)pyrazolo[3,4-b]pyridine], 83.6%.
The same measure, in the same setting: to `Fc1ccc(-c2nc3nn(C4CCNCC4)cc3c(-c3ccc(F)cc3)c2-c2ccncc2)cc1` [Example 36, 4,6-Bis(4-fluorophenyl)-2-(4-piperidyl)-5-(4-pyridyl)pyrazolo[3,4-b]pyridine] belongs 92%.
Same read-out and setting: to `Fc1ccc(-c2nc3c(cnn3CC3CCNCC3)c(-c3ccc(F)cc3)c2-c2ccncc2)cc1` [Example 39, 4,6-Bis(4-fluorophenyl)-1-(4-piperidylmethyl)-5-(4-pyridyl)pyrazolo[3,4-b]pyridine] belongs 51.1%; to `Fc1ccc(-c2nc3nn(CCC4CCNCC4)cc3c(-c3ccc(F)cc3)c2-c2ccncc2)cc1` [Example 43, 4,6-Bis(4-fluorophenyl)-2-[2-(4-piperidyl)ethyl]-5-(4-pyridyl)pyrazolo[3,4-b]pyridine], 61.2%; to `C[S+]([O-])c1ccc(-n2cc3c(-c4ccc(F)cc4)c(-c4ccncc4)c(-c4ccc(F)cc4)nc3n2)cc1` (stereo not drawn) [Example 56, 4,6-Bis(4-fluorophenyl)-2-(4-methylsulfinylphenyl)-5-(4-pyridyl)pyrazolo[3,4-b]pyridine], 58.7%.
Regarding `C[S+]([O-])c1ccc(Cn2cc3c(-c4ccc(F)cc4)c(-c4ccncc4)c(-c4ccc(F)cc4)nc3n2)cc1` (stereo not drawn) [Example 59, 4,6-Bis(4-fluorophenyl)-2-(4-methylsulfinylbenzyl)-5-(4-pyridyl)pyrazolo[3,4-b]pyridine], 0.1 µM produced 60% inhibition.
Same read-out and setting: the same measure for `Fc1ccc(-c2nc3[nH]nc(Cl)c3c(-c3ccc(F)cc3)c2-c2ccncc2)cc1` [Example 63, 3-Chloro-4,6-bis(4-fluorophenyl)-5-(4-pyridyl)-1H-pyrazolo[3,4-b]pyridine]: 53.2%.
The same measure, in the same setting: to `NCc1n[nH]c2nc(-c3ccc(F)cc3)c(-c3ccncc3)c(-c3ccc(F)cc3)c12` [Example 68, 3-Aminomethyl-4,6-bis(4-fluorophenyl)-5-(4-pyridyl)-1H-pyrazolo[3,4-b]pyridine] belongs 50%; to `Oc1ccc(-c2c(-c3ccncc3)c(-c3ccc(F)cc3)nc3[nH]ncc23)cc1` [Example 72, 4-[6-(4-Fluorophenyl)-5-(4-pyridyl)-1H-pyrazolo[3,4-b]pyridin-4-yl]phenol], 52.7%; to `CNCCCn1cc2c(-c3ccc(F)cc3)c(-c3ccncc3)c(-c3ccc(F)cc3)nc2n1` [Example 78, N-Methyl-[3-[4,6-bis(4-fluorophenyl)-5-(4-pyridyl)pyrazolo[3,4-b]pyridin-2-yl]propyl]amine], 73.3%.
On the same count and under the same terms, the same measure for `CN(C)C(=O)Cn1cc2c(-c3ccc(F)cc3)c(-c3ccncc3)c(-c3ccc(F)cc3)nc2n1` [Example 80, 2-[4,6-Bis(4-fluorophenyl)-5-(4-pyridyl)pyrazolo[3,4-b]pyridin-2-yl]-N,N-dimethylacetamide]: 69.3%; for `COCCOCCn1cc2c(-c3ccc(F)cc3)c(-c3ccncc3)c(-c3ccc(F)cc3)nc2n1` [Example 82, 4,6-Bis(4-fluorophenyl)-2-[2-(2-methoxyethoxy)ethyl]-5-(4-pyridyl)pyrazolo[3,4-b]pyridine]: 59.9%; for `Fc1ccc(-c2nc3nn(Cc4cccnc4)cc3c(-c3ccc(F)cc3)c2-c2ccncc2)cc1` [Example 102, 4,6-Bis(4-fluorophenyl)-5-(4pyridyl)-2-(3-pyridylmethyl)pyrazolo[3,4-b]pyridine]: 67.9%.
On to `OC1CCN(CCn2cc3c(-c4ccc(F)cc4)c(-c4ccncc4)c(-c4ccc(F)cc4)nc3n2)CC1` [Example 106, 1-[2-[4,6-Bis(4-fluorophenyl)-5-(4-pyridyl)pyrazolo[3,4-b]pyridin-2-yl]ethyl]piperidin-4-ol], for which 0.1 µM produced 69.3% inhibition.
The same measure, in the same setting: the same measure for `Fc1ccc(-c2nc3nn(C4CCNCC4)cc3cc2-c2ccncc2)cc1` [Example 121, 6-(4-Fluorophenyl)-2-(4-piperidyl)-5-(4-pyridyl)pyrazolo[3,4-b]pyridine]: 52.1%.
Regarding `C[C@H](Nc1nccc(-c2cc3cn[nH]c3nc2-c2cccc(C(F)(F)F)c2)n1)c1ccccc1` [Example 128, (1S)-N-(1-Phenylethyl)-[4-[6-[3-(trifluoromethyl)phenyl]-1H-pyrazolo[3,4-b]pyridin-5-yl]pyrimidin-2-yl]amine], the inhibition at 0.1 µM worked out at 82%.
`CC(=O)N1CCN(CCn2cc3c(-c4ccc(F)cc4)c(-c4ccncc4)c(-c4ccc(F)cc4)nc3n2)CC1` [Example 136, 1-[4-[2-[4,6-Bis(4-fluorophenyl)-5-(4-pyridyl)pyrazolo[3,4-b]pyridin-2-yl]ethyl]piperazin-1-yl]ethanone]: at 0.1 µM the inhibition was 67%.
Same read-out and setting: to `OCCCn1cc2c(-c3ccccc3)c(-c3ccncc3)c(-c3ccccc3)nc2n1` [Example 137, 3-[4,6-Diphenyl-5-(4-pyridyl)pyrazolo[3,4-b]pyridin-2-yl]propan-1-ol] belongs 61.4%; to `Cn1cc2c(-c3ccco3)c(-c3ccncc3)c(-c3ccc(F)cc3)nc2n1` [Example 183, 6-(4-Fluorophenyl)-4-(2-furyl)-2-methyl-5-(4-pyridyl)pyrazolo[3,4-b]pyridine], 66.7%.
As for `Cn1cnc(-c2c(-c3ccncc3)c(-c3ccc(F)cc3)nc3nn(C)cc23)c1` [Example 184, 6-(4-Fluorophenyl)-2-methyl-4-(1-methyl-1H-imidazol-4-yl)-5-(4-pyridyl)pyrazolo[3,4-b]pyridine], the inhibition at 0.1 µM turned out to be 71.2%.
Still for that read-out and setting: to `OCCn1cc2c(-c3ccccc3)c(-c3ccncc3)c(-c3ccccc3)nc2n1` [Example 196, 2-[4,6-Diphenyl-5-(4-pyridyl)pyrazolo-[3,4-b]pyridin-2-yl]ethanol] belongs 70.2%; to `FC(F)(F)c1cccc(-c2nc3[nH]ncc3cc2-c2ccnc(NCC3CC3)n2)c1` [Example 208, N-Cyclopropylmethyl-[4-[6-[3-(trifluoromethyl)phenyl]-1H-pyrazolo[3,4-b]pyridin-5-yl]pyrimidin-2-yl]amine], 67.7%.
Still for that read-out and setting: to `C[C@H](Nc1nccc(-c2cc3cn(CCCO)nc3nc2-c2cccc(C(F)(F)F)c2)n1)c1ccccc1` [Example 209, (1S)-3-[5-[2-(1-Phenylethylamino)-pyrimidin-4-yl]-6-(3-trifluoromethylphenyl)pyrazolo[3,4-b]pyridin-2-yl]propan-1-ol] belongs 84.2%.
Same read-out and setting: the same measure for `Cn1cc2cc(-c3ccnc(NCC4CC4)n3)c(-c3ccc(F)cc3)nc2n1` [Example 210, N-Cyclopropylmethyl-[4-[6-(4-fluorophenyl)-2-methylpyrazolo[3,4-b]pyridin-5-yl]pyrimidin-2-yl]amine]: 57.3%.

The assay is the same for the next values; noted with them: test product at 0.1 μM, LPS 400 ng/mL, 19 h, TNF-α in supernatant by ELISA.
For the compound “6-(4-Fluorophenyl)-4-methyl-5-(2-methylsulfanylpyrimidin-4-yl)-1H-pyrazolo[3,4-b]pyridine [Example 237]”, the “% Inhibition at 0.1 μM” value came to 53.4%.
The same measure, in the same setting: the same measure for `OCCCn1cc2c(-c3ccc(F)cc3)c(-c3ccncc3)c(-c3ccc(F)cc3)nc2n1` [Example 18, 3-[4,6-Bis(4-fluorophenyl)-5-(4-pyridyl)pyrazolo[3,4-b]pirridin-2-yl]propan-1-ol]: 82.6%; for `Cc1c2c(-c3ccc(F)cc3)c(-c3ccncc3)c(-c3ccc(F)cc3)nc2nn1C1CCNCC1` [Example 41, 4,6-Bis(4-fluorophenl)-3-methyl-2-(4-piperidyl)-5-(4-pyridyl)pyrazolo[3,4-b]pyridine]: 90.6%; for `Cn1cc2c(-c3ccc(Br)s3)c(-c3ccncc3)c(-c3ccc(F)cc3)nc2n1` [Example 188, 4-(5-Bromothien-2-yl)-6-(4-fluoro-phenyl)-2-methyl-5-(4-pyridyl)-1H-pyrazolo[3,4-b]pyridine]: 73.2%.
